Data reported in US8129371B2, “Thienopyrimidine and pyrazolopyrimidine compounds and their use as mTOR kinase and PI3 kinase inhibitors” (Wyeth LLC, priority 2007, dated 2012).

How the values were obtained:
Human mTOR (FLAG-TOR) = target: T1, Human mTOR (FLAG-TOR) (Homo sapiens, UniProt P42345); assay: Human mTOR kinase assay with purified enzyme, DELFIA format; assay type: biochemical
T1 construct: FLAG
Method in brief: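 DELFIA readout: Eu-anti-P(T389)-S6K antibody (40 ng/mL, 1 h) on captured His6-S6K from the stopped reaction. Kinase step used purified FLAG-tagged human mTOR with test compound in HEPES (pH 7.4)/MnCl2/DTT buffer, 2 h at room temperature (linear 1–6 h), terminated by EDTA/EGTA.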

prostate line LNCap = assay: In vitro cell culture growth assay (MTS), LNCap; assay type: cell-based; conditions: Homo sapiens, LNCaP, 72 h, LNCap cells, three days after drug treatment
Method in brief: (§1)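 The readout was MTS dye metabolism at 490 nm, taken after 3-day drug exposure that began the day after seeding. Growth was expressed as percent of vehicle-treated wells in the same plate.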

breast line MDA468 = assay: In vitro cell culture growth assay (MTS), MDA468; assay type: cell-based; conditions: Homo sapiens, 72 h, MDA468 cells, three days after drug treatment
Method in brief: as §1

PI3K [1] = target: T2, PI3K (Homo sapiens, UniProt P48736); assay: Fluorescence polarization assay for PI3K; assay type: biochemical; conditions: PI3 Kinase γ; read-out: PI3 Kinase γ IC50
T2 construct: PI3 Kinase γ IC50; other: PI3 Kinase γ; other: PI3 Kinase γ isoform, fluorescence polarization
T2 sequence (P48736 whole entry, canonical isoform): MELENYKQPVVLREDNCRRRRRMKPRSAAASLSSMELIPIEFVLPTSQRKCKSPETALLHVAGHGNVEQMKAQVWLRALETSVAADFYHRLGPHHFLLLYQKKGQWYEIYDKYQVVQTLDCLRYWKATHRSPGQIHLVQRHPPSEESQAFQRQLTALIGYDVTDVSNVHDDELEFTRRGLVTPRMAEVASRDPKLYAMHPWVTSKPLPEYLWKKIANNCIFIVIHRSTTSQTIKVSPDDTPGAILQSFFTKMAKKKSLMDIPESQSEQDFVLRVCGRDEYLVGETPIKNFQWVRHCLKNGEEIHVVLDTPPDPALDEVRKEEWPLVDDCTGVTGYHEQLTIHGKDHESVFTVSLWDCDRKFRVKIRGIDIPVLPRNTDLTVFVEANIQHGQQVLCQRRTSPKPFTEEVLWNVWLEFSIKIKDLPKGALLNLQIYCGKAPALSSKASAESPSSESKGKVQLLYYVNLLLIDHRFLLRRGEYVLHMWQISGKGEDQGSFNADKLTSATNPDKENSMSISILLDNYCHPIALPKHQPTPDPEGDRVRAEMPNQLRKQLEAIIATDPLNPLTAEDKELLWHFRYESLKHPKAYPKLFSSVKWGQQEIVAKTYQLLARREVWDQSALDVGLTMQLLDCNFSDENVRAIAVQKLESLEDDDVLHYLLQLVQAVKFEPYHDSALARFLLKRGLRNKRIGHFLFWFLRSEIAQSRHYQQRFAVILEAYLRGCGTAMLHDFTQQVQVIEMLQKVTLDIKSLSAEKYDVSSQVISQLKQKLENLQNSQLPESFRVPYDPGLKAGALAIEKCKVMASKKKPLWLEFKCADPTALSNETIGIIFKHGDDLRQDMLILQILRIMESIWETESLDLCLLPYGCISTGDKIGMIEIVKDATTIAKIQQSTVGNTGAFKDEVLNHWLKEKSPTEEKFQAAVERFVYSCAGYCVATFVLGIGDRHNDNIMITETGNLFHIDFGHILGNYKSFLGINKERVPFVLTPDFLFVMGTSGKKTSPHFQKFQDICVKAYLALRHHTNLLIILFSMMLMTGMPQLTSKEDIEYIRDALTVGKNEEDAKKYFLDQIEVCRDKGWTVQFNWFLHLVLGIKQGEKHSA
Method in brief: (§2)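 Fluorescence-polarization competition readout: after 30–60 min of PIP2/ATP turnover in 1% DMSO, a stop mix with GST-GRP (70 nM) and red probe (10 nM) was added.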

PI3K [2] = target: T3, PI3K (Homo sapiens, UniProt P42336); assay: Fluorescence polarization assay for PI3K; assay type: biochemical; conditions: PI3 Kinase α; read-out: PI3 Kinase α IC50
T3 construct: PI3 Kinase α IC50; other: PI3 Kinase α; other: PI3 Kinase α isoform, fluorescence polarization
T3 sequence (P42336 whole entry, canonical isoform): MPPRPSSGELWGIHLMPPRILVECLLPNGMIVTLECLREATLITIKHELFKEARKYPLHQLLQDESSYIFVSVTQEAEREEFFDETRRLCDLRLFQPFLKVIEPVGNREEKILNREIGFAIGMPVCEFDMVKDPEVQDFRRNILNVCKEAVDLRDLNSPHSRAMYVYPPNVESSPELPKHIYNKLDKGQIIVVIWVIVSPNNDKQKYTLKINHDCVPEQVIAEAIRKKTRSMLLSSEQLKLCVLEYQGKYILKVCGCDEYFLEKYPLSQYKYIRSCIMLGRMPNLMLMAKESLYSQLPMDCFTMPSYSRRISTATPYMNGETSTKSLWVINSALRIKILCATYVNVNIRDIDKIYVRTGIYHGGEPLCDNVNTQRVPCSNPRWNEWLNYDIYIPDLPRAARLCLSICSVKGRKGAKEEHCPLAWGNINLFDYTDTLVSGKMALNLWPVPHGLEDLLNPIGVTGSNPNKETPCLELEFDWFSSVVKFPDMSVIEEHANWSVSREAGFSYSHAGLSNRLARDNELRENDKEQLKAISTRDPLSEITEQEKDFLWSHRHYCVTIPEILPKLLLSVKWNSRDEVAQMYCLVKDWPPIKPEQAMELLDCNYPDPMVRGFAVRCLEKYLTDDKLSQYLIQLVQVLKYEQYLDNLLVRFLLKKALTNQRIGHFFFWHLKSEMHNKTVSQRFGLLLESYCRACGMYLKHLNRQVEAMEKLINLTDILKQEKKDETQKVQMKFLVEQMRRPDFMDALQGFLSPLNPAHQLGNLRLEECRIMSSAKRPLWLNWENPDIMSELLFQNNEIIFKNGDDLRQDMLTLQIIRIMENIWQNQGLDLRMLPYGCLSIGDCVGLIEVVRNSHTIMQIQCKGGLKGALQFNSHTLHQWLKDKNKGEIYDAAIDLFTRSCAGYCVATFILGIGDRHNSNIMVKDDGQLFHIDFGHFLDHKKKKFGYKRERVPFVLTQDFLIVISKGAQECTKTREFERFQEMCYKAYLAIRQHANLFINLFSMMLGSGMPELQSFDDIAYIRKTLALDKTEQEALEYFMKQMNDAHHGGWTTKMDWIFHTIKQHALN
Method in brief: as §2

| Compound | IC50 (Human mTOR (FLAG-TOR)) [nM] | IC50 (prostate line LNCap) [nM] | IC50 (breast line MDA468) [nM] | IC50 (PI3K [1]) [nM] | IC50 (PI3K [2]) [nM] |
| --- | --- | --- | --- | --- | --- |
| N#CCCn1ncc2c(N3CC4CCC(C3)O4)nc(-c3ccc(NC(=O)Nc4cccnc4)cc3)nc21 [Example 216, 1-{4-[1-(2-cyanoethyl)-4-(8-oxa-3-azabicyclo[3.2.1]oct-3-yl)-1H-pyrazolo[3,4-d]pyrimidin-6-yl]phenyl}-3-pyridin-3-ylurea] | 0.255 | 4 | 55 | 3320 | 124 |
| N#CCCn1ncc2c(N3CC4CCC(C3)O4)nc(-c3ccc(NC(=O)Nc4ccncc4)cc3)nc21 [Example 217, 1-{4-[1-(2-cyanoethyl)-4-(8-oxa-3-azabicyclo[3.2.1]oct-3-yl)-1H-pyrazolo[3,4-d]pyrimidin-6-yl]phenyl}-3-pyridin-4-ylurea] | 0.17 | < 1 | 1 | 348 | 112 |
| N#CCCn1ncc2c(N3CC4CCC(C3)O4)nc(-c3ccc(NC(=O)Nc4ccc(CO)cc4)cc3)nc21 [Example 218, 1-{4-[1-(2-cyanoethyl)-4-(8-oxa-3-azabicyclo[3.2.1]oct-3-yl)-1H-pyrazolo[3,4-d]pyrimidin-6-yl]phenyl}-3-[4-(hydroxymethyl)phenyl]urea] | 0.122 | < 1 | < 1 | 2200 | 40 |
| N#CCCn1ncc2c(N3CC4CCC(C3)O4)nc(-c3ccc(NC(=O)Nc4ccc(CCO)cc4)cc3)nc21 [Example 219, 1-{4-[1-(2-cyanoethyl)-4-(8-oxa-3-azabicyclo[3.2.1]oct-3-yl)-1H-pyrazolo[3,4-d]pyrimidin-6-yl]phenyl}-3-[4-(2-hydroxyethyl)phenyl]urea] | 0.082 | < 1 | < 1 | 1380 | 44 |
| CN1CCN(c2ccc(NC(=O)Nc3ccc(-c4nc(N5CC6CCC(C5)O6)c5cnn(CCC#N)c5n4)cc3)cc2)CC1 [Example 220, 1-{4-[1-(2-cyanoethyl)-4-(8-oxa-3-azabicyclo[3.2.1]oct-3-yl)-1H-pyrazolo[3,4-d]pyrimidin-6-yl]phenyl}-3-[4-(4-methylpiperazin-1-yl)phenyl]urea] | 0.48 | 4 | 10 | 1680 | 74 |
| N#CCCn1ncc2c(N3CC4CCC(C3)O4)nc(-c3ccc(NC(=O)Nc4ccc(N5CCOCC5)cc4)cc3)nc21 [Example 221, 1-{4-[1-(2-cyanoethyl)-4-(8-oxa-3-azabicyclo[3.2.1]oct-3-yl)-1H-pyrazolo[3,4-d]pyrimidin-6-yl]phenyl}-3-(4-morpholin-4-ylphenyl)urea] | 0.235 | < 1 | 3 | 4790 | 444 |
| CN1CCN(c2ccc(NC(=O)Nc3ccc(-c4nc(N5CC6CCC(C5)O6)c5cnn(CCC#N)c5n4)cc3)cn2)CC1 [Example 222, 1-{4-[1-(2-cyanoethyl)-4-(8-oxa-3-azabicyclo[3.2.1]oct-3-yl)-1H-pyrazolo[3,4-d]pyrimidin-6-yl]phenyl}-3-[6-(4-methylpiperazin-1-yl)pyridin-3-yl]urea] | 0.405 | 1 | 8 | 2610 | 143 |
| N#CCCn1ncc2c(N3CC4CCC(C3)O4)nc(-c3ccc(NC(=O)Nc4ccc(N5CCOCC5)nc4)cc3)nc21 [Example 223, 1-{4-[1-(2-cyanoethyl)-4-(8-oxa-3-azabicyclo[3.2.1]oct-3-yl)-1H-pyrazolo[3,4-d]pyrimidin-6-yl]phenyl}-3-(6-morpholin-4-ylpyridin-3-yl)urea] | 0.265 | 10 | 21 | > 10000 | 1660 |
| CN(C)CCOc1ccc(NC(=O)Nc2ccc(-c3nc(N4CC5CCC(C4)O5)c4cnn(CCC#N)c4n3)cc2)cc1 [Example 224, 1-{4-[1-(2-cyanoethyl)-4-(8-oxa-3-azabicyclo[3.2.1]oct-3-yl)-1H-pyrazolo[3,4-d]pyrimidin-6-yl]phenyl}-3-{4-[2-(dimethylamino)ethoxy]phenyl}urea] | 0.745 | 3 | 12 | 2600 | 155 |
| CCn1ncc2c(N3CC4CCC(C3)O4)nc(-c3ccc(NC(=O)NCCOCCN)cc3)nc21 [Example 225, 1-[2-(2-aminoethoxy)ethyl]-3-{4-[1-ethyl-4-(8-oxa-3-azabicyclo[3.2.1]oct-3-yl)-1H-pyrazolo[3,4-d]pyrimidin-6-yl]phenyl}urea] | 26.5 | 2400 | 4000 | > 10000 | 1390 |
| CCn1ncc2c(N3CC4CCC(C3)O4)nc(-c3ccc(NC(=O)NCC4CCN(C)CC4)cc3)nc21 [Example 226, 1-{4-[1-ethyl-4-(8-oxa-3-azabicyclo[3.2.1]oct-3-yl)-1H-pyrazolo[3,4-d]pyrimidin-6-yl]phenyl}-3-[(1-methylpiperidin-4-yl)methyl]urea] | 230 | 700 | 1300 | > 10000 | 4150 |
| CCn1ncc2c(N3CC4CCC(C3)O4)nc(-c3ccc(NC(=O)NC4CCCCC4)cc3)nc21 [Example 227, 1-cyclohexyl-3-{4-[1-ethyl-4-(8-oxa-3-azabicyclo[3.2.1]oct-3-yl)-1H-pyrazolo[3,4-d]pyrimidin-6-yl]phenyl}urea] | 15 | 1200 | 3200 | > 10000 | 5940 |
| CCn1ncc2c(N3CC4CCC(C3)O4)nc(-c3ccc(NC(=O)NC4CCN(C)CC4)cc3)nc21 [Example 228, 1-{4-[1-ethyl-4-(8-oxa-3-azabicyclo[3.2.1]oct-3-yl)-1H-pyrazolo[3,4-d]pyrimidin-6-yl]phenyl}-3-(1-methylpiperidin-4-yl)urea] | 31.5 | 490 | 900 | > 10000 | 4500 |
| Cn1ncc2c(N3CC4CCC(C3)O4)nc(-c3ccc(NC(=O)Nc4ccc(CO)cc4)cc3)nc21 [Example 231, 1-[4-(hydroxymethyl)phenyl]-3-{4-[1-methyl-4-(8-oxa-3-azabicyclo[3.2.1]oct-3-yl)-1H-pyrazolo[3,4-d]pyrimidin-6-yl]phenyl}urea] | 0.13 | < 1 | < 1 | 468 | 47 |
| Cn1ncc2c(N3CC4CCC(C3)O4)nc(-c3ccc(NC(=O)Nc4ccc(CCO)cc4)cc3)nc21 [Example 232, 1-[4-(2-hydroxyethyl)phenyl]-3-{4-[1-methyl-4-(8-oxa-3-azabicyclo[3.2.1]oct-3-yl)-1H-pyrazolo[3,4-d]pyrimidin-6-yl]phenyl}urea] | 0.105 | < 1 | 2 | 524 | 60 |
| CN(C)c1ccc(NC(=O)Nc2ccc(-c3nc(N4CC5CCC(C4)O5)c4cnn(C)c4n3)cc2)cc1 [Example 233, 1-[4-(dimethylamino)phenyl]-3-{4-[1-methyl-4-(8-oxa-3-azabicyclo[3.2.1]oct-3-yl)-1H-pyrazolo[3,4-d]pyrimidin-6-yl]phenyl}urea] | 0.865 | 40 | 140 | > 10000 | 604 |
| Cn1ncc2c(N3CC4CCC(C3)O4)nc(-c3ccc(NC(=O)Nc4ccc(N)cc4)cc3)nc21 [Example 234, 1-(4-aminophenyl)-3-{4-[1-methyl-4-(8-oxa-3-azabicyclo[3.2.1]oct-3-yl)-1H-pyrazolo[3,4-d]pyrimidin-6-yl]phenyl}urea] | 0.355 | 2 | 11 | 1100 | 162 |
| CN1CCN(c2ccc(NC(=O)Nc3ccc(-c4nc(N5CC6CCC(C5)O6)c5cnn(C)c5n4)cc3)cn2)CC1 [Example 235, 1-{4-[1-methyl-4-(8-oxa-3-azabicyclo[3.2.1]oct-3-yl)-1H-pyrazolo[3,4-d]pyrimidin-6-yl]phenyl}-3-[6-(4-methylpiperazin-1-yl)pyridin-3-yl]urea] | 0.625 | 3 | 68 | 1060 | 187 |
| CN1CCN(c2ccc(NC(=O)Nc3ccc(-c4nc(N5CC6CCC(C5)O6)c5cnn(C)c5n4)cc3)cc2)CC1 [Example 236, 1-{4-[1-methyl-4-(8-oxa-3-azabicyclo[3.2.1]oct-3-yl)-1H-pyrazolo[3,4-d]pyrimidin-6-yl]phenyl}-3-[4-(4-methylpiperazin-1-yl)phenyl]urea] | 0.445 | 4 | 43 | 260 | 70 |
| Cn1ncc2c(N3CC4CCC(C3)O4)nc(-c3ccc(NC(=O)Nc4ccc(N5CCOCC5)nc4)cc3)nc21 [Example 237, 1-{4-[1-methyl-4-(8-oxa-3-azabicyclo[3.2.1]oct-3-yl)-1H-pyrazolo[3,4-d]pyrimidin-6-yl]phenyl}-3-(6-morpholin-4-ylpyridin-3-yl)urea] | 0.37 | 7 | 52 | > 10000 | 1350 |
